Patent US20240148836A1, “COMPOSITION FOR TREATING CANCER EXPRESSING SPARC” (SEOUL NATIONAL UNIVERSITY R&DB FOUNDATION, priority 2021, published 2024)
Entries after “also recorded” stand apart in the source; their conditions may differ.

Legend:
U87MG cells = assay: Cellular cytotoxicity, Cell Counting Kit-8 (CCK-8) assay; format: cell-based, Human; settings: 72 h
Description: (§1) Human glioma cells (U87MG) were obtained from American Type Culture Collection (ATCC; Manassas, VA, USA). Low SPARC-expressing U87MG cells, U87MG-shSPARC, were established from a previous study.
(§2) (1) U87MG and U87MG-shSPARC cells were added to 96-well plates (4000 cells/well). […] Cell viability was analyzed using a Cell Counting Kit-8 (CCK-8, Dojindo Molecular Technologies, Tokyo, Japan) assay according to the manufacturer's protocols.
(2) To execute cellular cytotoxicity experiments of HSA bound with CDDPs in different numbers, U87MG cells were added to a 96-well plate (4000 cells/well) and incubated overnight. […] Cell viability was analyzed using a Cell Counting Kit-8 (CCK-8, Dojindo Molecular Technologies, Tokyo, Japan) assay according to the manufacturer's protocols.

U87MG-shSPARC cells = assay: as above; format: cell-based, Human; settings: 72 h, CCK-8, n=5, Table 1
Description: as §1, §2

U87MG tumor xenograft = assay: Xenograft tumor model, anti-tumor effect in vivo; set-up: species or system BALB/c nude mice; settings: for weight of mice: xenograft tumor models (U87MG and U87MG-shSPARC), FIG. 5C, 5D, 3 mg/kg IV 7 times
Description: BALB/c nude mice (5-week-old, male) were purchased from Orient Bio Inc. (Seongnam, Korea). U87MG or U87MG-shSPARC cells (2×10^6 cells/site) were injected subcutaneously into the right lower flanks.
(§3) The tumor size and body weight of each mouse were recorded every other day. Tumor volume was calculated using the equation V=0.5×L×W^2, where L represents tumor length and W represents tumor width.

[1] = test system: U87MG-shSPARC tumor xenograft; assay: Xenograft tumor model, anti-tumor effect in vivo; set-up: species or system BALB/c nude mice
Description: All animal studies were performed under approval from the Seoul National University Institutional Animal Care and Use Committee (IACUC No. 18-0231, 1 Nov. 2018). BALB/c nude mice (5-week-old, male) were purchased from Orient Bio Inc. (Seongnam, Korea). U87MG or U87MG-shSPARC cells (2×10^6 cells/site) were injected subcutaneously into the right lower flanks.
as §3

U87MG tumors = assay: Tumor CDDP accumulation using ICP-MS; format: in vivo, mice; settings: 72 h after last of 7 IV doses, FIG. 6B
Description: For tumor CDDP distribution, U87MG or U87MG-shSPARC cells (2×10^6 cells/site) were injected subcutaneously into the right lower flanks. […] At 72 h after the last IV administration (15 days after first administration), mice were euthanized, and the tumor was acquired.
All samples (organs, blood, and tumors) were lyophilized and we analyzed the amount of CDDP using the ICP-MS (NexION 350; Perkin-Elmer, Waltham, MA, USA) installed at the National Center for Inter-university Research Facilities (NCIRF) at Seoul National University.

[2] = Biosafety: body weight and blood biochemical analysis; format: in vivo, mice
Description: After centrifugation at 4° C. for 20 min, the plasma was collected for blood biochemical analysis. The concentrations of AST, ALT, BUN, and creatinine were analyzed at DKKorea (Seoul, Korea).

[3] = Histopathology examination, H&E staining; format: in vivo; settings: drug-treated mice, FIG. 7B
Text: The kidney, liver, and spleen of the drug-treated mice were acquired and fixed with 4% paraformaldehyde. Tissues were embedded in paraffin and stained with hematoxylin and eosin (H&E). H&E staining images were acquired using an optical microscope (Olympus BX43, Tokyo, Japan).

[4] = TUNEL assay of kidney sections; format: in vivo, mice; settings: FIGS. 8A and 8B
Text: The tumor and kidney were fixed with 4% paraformaldehyde and embedded in paraffin, which was further cut into […] sections. To evaluate cellular apoptosis in kidney, a kidney section was stained using a TUNEL assay kit-HRP-DAB (ab206386; abcam, Cambridge, UK) according to the manufacturer's protocols.

In the case of `N.N.[Cl][Pt][Cl]` [CDDP, cis-diamine dichloroplatinum (II)], the IC50 (U87MG cells; CCK-8, n=5, Table 1) is reported as 2540 ± 134 nM, the IC50 (U87MG cells; CCK-8, n=6, Table 2 (CDDP number-dependent HSA)) is reported as 4720 ± 110 nM and the IC50 (U87MG-shSPARC cells) is reported as 2650 ± 130 nM. The survival rate (U87MG tumor xenograft; U87MG tumor model vs PBS group, FIG. 5E) was “prolonged survival time than the PBS group”, the tumor growth (U87MG tumor xenograft; U87MG tumor model, 12 days after first drug treatment, 3 mg/kg CDDP equivalent IV every other day 7 times, p<0.001) was “significantly reduced tumor growth than the PBS group” and the Median survival (U87MG tumor xenograft; U87MG tumor xenograft model, 3 mg/kg CDDP equivalent IV 7 times) was 22 days. The weight of mice (U87MG tumor xenograft) was “significantly decreased”, the weight of mice (U87MG tumor xenograft; listed as CCDP) was “significant weight loss compared to the group treated with PBS” and the survival rate ([1]; U87MG-shSPARC tumor model vs PBS group, FIG. 5F) was “prolonged survival”. The tumor growth ([1]; U87MG-shSPARC tumor model, 26 days after first drug treatment, 3 mg/kg CDDP equivalent IV every other day 7 times) was “significantly reduced tumor growth than the PBS group”, the Median survival ([1]; U87MG-shSPARC tumor xenograft model, 3 mg/kg CDDP equivalent IV 7 times) was 42 days and the “accumulation of CDDP, U87MG vs U87MG-shSPARC tumors” value (U87MG tumors) was “no difference in CDDP accumulation between U87MG and U87MG-shSPARC”. For the same molecule, the body weight ([2]; 72 h after final treatment (every other day, seven times), FIG. 7A) was “significant body weight loss compared to the PBS and HSA-CDDP groups”, the “blood urea nitrogen (BUN)” value ([2]; kidney function, 72 h after final treatment) was “increased” and the “H&E staining of kidney tissue” value [3] was “tubular degeneration; also recorded: extensive epithelial vacuolization; also recorded: degeneration of renal tubules; also recorded: vacuolation of epithelial cells”. The “TUNEL positive cells in kidney” value [4] was “TUNEL positive cells were only identified in the kidney of CDDP-treated mice”.
